{"source": "patent US20100197602A1", "about": "“USE OF FOLLICULAR GONADOTROPIN RELEASING PEPTIDE AS A THERAPEUTIC AGENT IN THE TREATMENT OF STREPTOCOCCUS PNEUMONIAE INFECTION” (priority 2007, published 2010)", "test_system": "drug-resistant Mycobacterium tuberculosis", "settings": "drug-resistant Mycobacterium tuberculosis (PAS, streptomycin, INH); peptide 10 micrograms per ml; seven days", "note": "Residues, ends and D or L forms follow the SMILES beside them."}
{"compound": "C[C@@H](O)[C@H](N)C(=O)N[C@@H](CC(=O)O)C(=O)N[C@H](C(=O)N[C@@H](CO)C(=O)N[C@@H](Cc1c[nH]cn1)C(=O)N[C@@H](Cc1c[nH]cn1)C(=O)N[C@@H](CC(=O)O)C(=O)N[C@@H](CCC(N)=O)C(=O)N[C@@H](CC(=O)O)C(=O)N[C@@H](Cc1c[nH]cn1)C(=O)N1CCC[C@H]1C(=O)N[C@H](C(=O)N[C@@H](Cc1ccccc1)C(=O)N[C@@H](CC(N)=O)C(=O)O)[C@@H](C)O)[C@@H](C)O", "note": "[FGRP, Thr-Asp-Thr-Ser-His-His-Asp-Gln-Asp-His-Pro-Thr-Phe-Asn-OH] (H-TDTSHHDQDHPTFN-OH)", "values": [{"measurement": "% inhibition", "result": 0.0, "unit": "%"}]}
